According to ChEMBL document CHEMBL1154985, “Discovery of a novel series of potent S1P1 agonists” (Bioorg Med Chem Lett, 2010):
In brackets after ≈: the same amount, converted by molar mass. Activity calls are given as the source filed them. No cut-off for these calls is given here.

What was measured:
[1] = target: T1, Sphingosine 1-phosphate receptor 1 (Homo sapiens, UniProt P21453); test: Agonist activity at S1P1 receptor expressed in CHO cells after 60 mins by [35S]-GTPgammaS binding assay; format: functional, cell-based
[2] = target: Sphingosine 1-phosphate receptor 5 (Homo sapiens, UniProt Q9H228); test: Agonist activity at S1P5 receptor expressed in CHO cells after 60 mins by [35S]-GTPgammaS binding assay; format: functional, cell-based
[3] = Solubility in PBS by nephelometry; format: physicochemical
[4] = Intrinsic clearance in human liver microsomes at 3 uM by LC/MS-MS analysis; format: ADME, Microsome
[5] = Intrinsic clearance in rat liver microsomes at 3 uM by LC/MS-MS analysis; format: ADME, Microsome
[6] = Apparent permeability across human Caco-2 cells by LC/MS-MS analysis; format: ADME, cell-based
[7] = target: Sphingosine 1-phosphate receptor 3 (Homo sapiens, UniProt Q99500); test: Agonist activity at S1P3 receptor expressed in CHO cells after 60 mins by [35S]-GTPgammaS binding assay; format: functional, cell-based
[8] = Lipophilicity, log P of the compound; format: physicochemical; settings: octanol/water
[9] = Clearance in mouse; format: ADME, organism-based; settings: in vivo
[10] = test system: Mus musculus; test: Reduction of S1P1-mediated lymphopenia in mouse assessed as blood lymphocyte depletion at 30 mg/kg, po after 4 hrs; format: functional; parameters: scale not given: the % may be the effect or the level left
[11] = test system: Mus musculus; test: Reduction of lymphopenia in mouse assessed as effect on erythrocytes at 30 mg/kg, po after 4 hrs; format: functional, organism-based; parameters: dose 30 mg/kg
[12] = test system: Mus musculus; test: Reduction of lymphopenia in mouse assessed as effect on platelets at 30 mg/kg, po after 4 hrs; format: functional, organism-based; parameters: dose 30 mg/kg
[13] = target: T1, Sphingosine 1-phosphate receptor 1; test: Agonist activity at S1P1 receptor expressed in human U20S cells assessed as receptor internalization by green fluorescent protein reporter gene assay; format: functional, cell-based, U2OS
[14] = Lipophilicity, log D at pH 7.4; format: physicochemical; settings: buffer

Sequence of Sphingosine 1-phosphate receptor 5 (Q9H228 whole entry): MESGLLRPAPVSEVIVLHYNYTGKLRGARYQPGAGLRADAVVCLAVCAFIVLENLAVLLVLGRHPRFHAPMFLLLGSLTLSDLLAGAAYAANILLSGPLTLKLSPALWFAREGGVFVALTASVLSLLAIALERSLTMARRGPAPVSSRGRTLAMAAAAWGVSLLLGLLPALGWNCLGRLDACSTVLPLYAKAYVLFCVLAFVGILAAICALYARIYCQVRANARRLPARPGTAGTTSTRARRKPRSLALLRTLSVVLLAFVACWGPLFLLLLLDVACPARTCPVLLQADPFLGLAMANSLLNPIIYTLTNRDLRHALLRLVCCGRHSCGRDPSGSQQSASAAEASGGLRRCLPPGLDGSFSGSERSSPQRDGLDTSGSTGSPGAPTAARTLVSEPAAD
Sequence of Sphingosine 1-phosphate receptor 3 (Q99500 whole entry): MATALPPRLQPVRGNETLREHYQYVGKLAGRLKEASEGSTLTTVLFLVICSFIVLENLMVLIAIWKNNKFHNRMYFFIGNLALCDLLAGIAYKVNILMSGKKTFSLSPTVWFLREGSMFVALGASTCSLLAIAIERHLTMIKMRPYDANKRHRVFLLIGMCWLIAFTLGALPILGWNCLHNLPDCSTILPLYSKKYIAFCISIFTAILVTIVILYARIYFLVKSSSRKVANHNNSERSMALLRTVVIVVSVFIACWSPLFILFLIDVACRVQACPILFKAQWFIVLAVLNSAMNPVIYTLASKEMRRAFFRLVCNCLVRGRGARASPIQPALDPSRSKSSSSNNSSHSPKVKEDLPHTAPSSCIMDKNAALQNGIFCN
T1 sequence (P21453 whole entry): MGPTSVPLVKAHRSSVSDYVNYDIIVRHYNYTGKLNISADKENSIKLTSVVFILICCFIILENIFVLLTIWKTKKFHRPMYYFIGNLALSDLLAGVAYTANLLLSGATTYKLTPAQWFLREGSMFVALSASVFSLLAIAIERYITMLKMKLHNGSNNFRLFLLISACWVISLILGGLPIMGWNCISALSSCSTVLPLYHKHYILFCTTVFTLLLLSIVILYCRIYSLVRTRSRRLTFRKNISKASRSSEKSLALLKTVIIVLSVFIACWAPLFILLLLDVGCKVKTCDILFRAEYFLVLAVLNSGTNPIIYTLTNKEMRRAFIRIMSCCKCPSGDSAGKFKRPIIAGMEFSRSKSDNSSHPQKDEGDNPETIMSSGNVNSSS

Row | SMILES | EC50 [1] [nM] | EC50 [2] [nM] | solubility kinetic [3] [µg/mL] | microsomal CLint at 3 µM [4] [µL/min/mg] | microsomal CLint at 3 µM [5] [µL/min/mg] | Papp [6] [×10⁻⁶ cm/s] | EC50 [7] [nM] | further results
1 | COc1ccc(NC(=O)c2cc(NC3CCCCC3)ncn2)cc1 | > 20000 | – | – | – | – | – | – | –
2 | Cc1cc(S(=O)(=O)NCCC(=O)O)ccc1NC(=O)c1cc(N(CC2CC2)C2CCCCC2)ncn1 | – | 114 | > 51 | 25 | 25 | 2 | – | –
3 | Cc1cc(O)ccc1NC(=O)c1cc(N(CC2CC2)C2CCCCC2)ncn1 | – | 191 | 8 (≈ 21 µM) | 22 | 52 | – | > 30000 | logP [8]: 7.4
4 | Cc1cc(O)ccc1NC(=O)c1cc(NC2CCCCC2)ncn1 | – | 258 | > 32 | 2 | 18 | 21.8 | > 30000 | logP [8]: 4.1; clearance [9]: 80.8 mL/min/kg
5 | CCCN(CC1CC1)c1cc(C(=O)Nc2ccc3[nH]ncc3c2)ncn1 | – | 142 | 11 (≈ 31.4 µM) | 17 | 57 | 8.5 | – | Activity [10]: 72%; Activity [11]: inactive; Activity [12]: inactive; logP [8]: 4.6; EC50 [13]: 12 nM
6 | NS(=O)(=O)c1ccc(NC(=O)c2cc(NC3CCCCC3)ncn2)cc1 | – | – | – | – | – | – | – | clearance [9]: 5 mL/min/kg
7 | CNS(=O)(=O)c1ccc(NC(=O)c2cc(N(CC3CC3)C3CCCCC3)ncn2)c(C)c1 | 6 | – | – | – | – | – | – | –
8 | CN(c1cc(C(=O)Nc2ccc3[nH]nnc3c2)ncn1)C1CCCCC1 | 7300 | – | – | – | – | – | – | –
9 | CC(=O)Nc1ccc(NC(=O)c2cc(NC3CCCCC3)ncn2)cc1 | > 20000 | – | – | – | – | – | – | –
10 | O=C(Nc1ccc2[nH]ccc2c1)c1cc(NC2CCCCC2)ncn1 | 12100 | – | – | – | – | – | – | –
11 | CN(c1ccccc1)c1cc(C(=O)Nc2ccc(O)cc2)ncn1 | > 20000 | – | – | – | – | – | – | –
12 | O=C(Nc1ccc(O)cc1)c1cc(NC2CCCCC2)ncn1 | – | – | – | – | – | – | > 30000 | –
13 | Cc1cc2[nH]ncc2cc1NC(=O)c1cc(N(CC2CC2)C2CCCCC2)ncn1 | – | – | 5 (≈ 12.4 µM) | < 10 | 26 | 0.1 | – | logP [8]: 6.1
14 | Cc1cc(O)ccc1NC(=O)c1cc(NC(C)(C)C)ncn1 | > 20000 | – | – | – | – | – | – | –
15 | CCCN(CCC)c1cc(C(=O)Nc2ccc(O)cc2)ncn1 | 375 | – | 16 (≈ 50.9 µM) | 4 | 7 | 21.4 | – | –
16 | O=C(Nc1ccc(F)cc1F)c1cc(NC2CCCCC2)ncn1 | > 20000 | – | – | – | – | – | – | –
17 | Cc1cc(CN2CC(C(=O)O)C2)ccc1NC(=O)c1cc(N(CC2CC2)C2CCCCC2)ncn1 | 3 | 0.6 | 22 (≈ 46.1 µM) | < 10 | < 10 | 2.4 | 236 | logD [14]: > 2.7; EC50 [13]: 3 nM
18 | Cc1cc(S(N)(=O)=O)ccc1NC(=O)c1cc(N(CC2CC2)C2CCCCC2)ncn1 | 1.6 | 96 | 1 (≈ 2.25 µM) | 130 | 14 | – | > 30000 | logP [8]: 5.7
19 | O=C(Nc1ccc(CO)cc1)c1cc(NC2CCCCC2)ncn1 | > 20000 | – | – | – | – | – | – | –
20 | CCN(c1cc(C(=O)Nc2ccc(O)cc2C)ncn1)C1CCCCC1 | 405 | – | – | – | – | – | – | –
21 | Cc1cc(O)ccc1NC(=O)c1cc(NC2CC2)ncn1 | > 20000 | – | – | – | – | – | – | –
22 | O=C(O)CCNCc1ccc(NC(=O)c2cc(N(CC3CC3)C3CCCCC3)ncn2)cc1 | – | 6.3 | > 45 | < 10 | < 10 | 0.8 | 1090 | –
23 | Cc1cc(S(N)(=O)=O)ccc1NC(=O)c1cc(NC2CCCCC2)ncn1 | – | – | 5 (≈ 12.8 µM) | 43 | 15 | 12.5 | > 30000 | logP [8]: 3.6
